Laboratory results taken from patent US20230265116A1, “DEGRADATION OF (EGFR) BY CONJUGATION OF EGFR INHIBITORS WITH E3 LIGASE LIGAND AND METHODS OF USE” (BEIGENE, LTD., priority 2020, published 2023).
Read-outs that look alike come from different tables or passages of the source.

Assays:
Format in all cases: cell-based
EGFR WT (BaF3 WT cells) = target: T1, EGFR WT (BaF3 WT cells) (Homo sapiens, UniProt P00533); experiment: EGFR degradation HTRF assay, BaF3 WT cells
T1 construct: expressed in transfected cells; host or cells: BaF3
Method: BaF3 WT(wild type), BaF3-LTC(L858R/T790M/C797S) and BaF3-DTC(Del19/T790M/C797S) cells are treated with compounds diluted in 0.2% DMSO cell culture medium and incubate for 16h, 37° C., 5% CO2, H1975-#36, H1975-#28, H1975-#23 and HCC827 cells are treated with compounds diluted in 0.2% DMSO cell culture medium on day 2, incubate for 16h, 37° C., 5% CO2.the final concentriation of compounds in all assay is start with 10 uM, 5-fold dilution, total 8 doses were included.
After 16h treatment, add HTRF lysis buffer to each well; seal the plate and incubate 1 hour at room temperature on a plate shaker; Once the cells are lysed, 16 μL of cell lysate are transferred to a PE 384-well HTRF detection plate; 4 μL of pre-mixed HTRF antibodies are added to each well; Cover the plate with a plate sealer, spin 1000 rpm for 1 min, Incubate overnight at room temperature; Read on BMG PheraStar with HTRF protocol (337 nm-665 nm-620 nm).
The inhibition (degradation) percentage of the compound was calculated by the following equation: Inhibition percentage of Compound=100-100×(Signal-low control)/(High control-low control), wherein signal=each test compound group
High control=Cell group with added DMSO and without compound, indicating microplate readings without EGFR degradation;
Dmax is the maximum percentage of inhibition (degradation).
The IC50 (DC50) value of a compound can be obtained by fitting the following equation
Y=Bottom+(TOP−Bottom)/(1+((IC50/X)^hillslope))
Wherein, X and Y are known values, and IC50, Hillslope, Top and Bottom are the parameters obtained by fitting with software. Y is the inhibition percentage (calculated from the equation), X is the concentration of the compound; IC50 is the concentration of the compound when the 50% inhibition is reached. The smaller the IC50 value is, the stronger the inhibitory ability of the compound is. Vice versa, the higher the IC50 value is, the weaker the inhibitory ability of the compound is; Hillslope represents the slope of the fitted curve, generally around 1*; Bottom represents the minimum value of the curve obtained by data fitting, which is generally 0%±20%; Top represents the maximum value of the curve obtained by data fitting, which is generally 100%±20%. The experimental data were fitted by calculating and analyzing with Dotmatics data analysis software.

[1] = test system: EGFR Del19/T790M/C797S (BaF3-DTC cells); experiment: EGFR degradation HTRF assay, BaF3-DTC cells; conditions: for DTC Dmax (%): maximum percentage of degradation
Procedure, shortened: (§1)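 EGFR remaining after a 16 h, 37 °C exposure (8 doses, 5-fold steps from 10 uM final, 0.2% DMSO) was quantified by HTRF antibodies in cell lysate. Percent inhibition relative to DMSO control was fitted by four-parameter logistic to give DC50; Dmax denotes maximal degradation.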

[2] = target: T2, EGFR L858R/T790M/C797S (BaF3-LTC cells) (Homo sapiens, UniProt P00533, C797S/L858R/T790M); experiment: EGFR degradation HTRF assay, BaF3-LTC cells
T2 construct: expressed in transfected cells; host or cells: BaF3
Procedure, shortened: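 Cells treated 16 h at 37 °C, 5% CO2 in medium with 0.2% DMSO; top final concentration 10 uM, 5-fold dilution, 8 doses. Lysates read by HTRF (665/620 nm); degradation % versus DMSO high control, DC50 from four-parameter fit, Dmax as maximal degradation.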

EGFR (HCC827 cells) = target: T3, EGFR (HCC827 cells) (Homo sapiens, UniProt P00533, DEL746-750); experiment: EGFR degradation HTRF assay, HCC827 cells; conditions: HCC827, 16h treatment
T3 construct: endogenous in cells; host or cells: HCC827
Procedure, shortened: as §1

[3] = test system: EGFR Del19/T790M/C797S (H1975-clone #28); experiment: EGFR degradation HTRF assay, H1975-clone #28 DTC cells
Procedure, shortened: (§2)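 The test uses H1975 clonal lines carrying lentiviral mutant EGFR with endogenous copies removed, treated 16h at 37° C., 5% CO2. EGFR left in the lysate is quantified by HTRF, and DC50 is derived from an 8-dose curve starting at 10 uM final.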

[4] = test system: EGFR Del19/C797S (H1975-clone #23); experiment: EGFR degradation HTRF assay, H1975-clone #23 DC cells; conditions: for H1975 #23 DC Dmax (%): maximum percentage of degradation
Procedure, shortened: as §2

[5] = target: T4, EGFR L858R/C797S (BaF3 LC cells) (Homo sapiens, UniProt P00533, C797S/L858R); experiment: EGFR degradation HTRF assay, BaF3 LC cells
T4 construct: expressed in transfected cells; host or cells: BaF3

[6] = BaF3-LTC, 16h treatment, maximum percentage of degradation, read-out: LTC Dmax (%)
[7] = BaF3-LTC, 16h treatment, read-out: LTC DC50
[8] = BaF3 WT, 16h treatment, maximum percentage of degradation, read-out: WT Dmax (%)
[9] = 16h treatment, read-out: DTC DC50
[10] = BaF3-LTC cells, EGFR degradation, IC50 (DC50) from curve fit, read-out: DC50(nM) BaF3-LTC
[11] = H1975 # 28 DTC cells; EGFR degradation, IC50 (DC50) from curve fit; read-out: DC50(nM) H1975 # 28 DTC
[12] = H1975 # 28 DTC cells; maximum percentage of inhibition (degradation)
[13] = H1975 #23 DC, 16h treatment, read-out: H1975 #23 DC DC50
[14] = BaF3 LC, 16h treatment; read-out: BaF3 LC DC50

T1 sequence (P00533 25-1210): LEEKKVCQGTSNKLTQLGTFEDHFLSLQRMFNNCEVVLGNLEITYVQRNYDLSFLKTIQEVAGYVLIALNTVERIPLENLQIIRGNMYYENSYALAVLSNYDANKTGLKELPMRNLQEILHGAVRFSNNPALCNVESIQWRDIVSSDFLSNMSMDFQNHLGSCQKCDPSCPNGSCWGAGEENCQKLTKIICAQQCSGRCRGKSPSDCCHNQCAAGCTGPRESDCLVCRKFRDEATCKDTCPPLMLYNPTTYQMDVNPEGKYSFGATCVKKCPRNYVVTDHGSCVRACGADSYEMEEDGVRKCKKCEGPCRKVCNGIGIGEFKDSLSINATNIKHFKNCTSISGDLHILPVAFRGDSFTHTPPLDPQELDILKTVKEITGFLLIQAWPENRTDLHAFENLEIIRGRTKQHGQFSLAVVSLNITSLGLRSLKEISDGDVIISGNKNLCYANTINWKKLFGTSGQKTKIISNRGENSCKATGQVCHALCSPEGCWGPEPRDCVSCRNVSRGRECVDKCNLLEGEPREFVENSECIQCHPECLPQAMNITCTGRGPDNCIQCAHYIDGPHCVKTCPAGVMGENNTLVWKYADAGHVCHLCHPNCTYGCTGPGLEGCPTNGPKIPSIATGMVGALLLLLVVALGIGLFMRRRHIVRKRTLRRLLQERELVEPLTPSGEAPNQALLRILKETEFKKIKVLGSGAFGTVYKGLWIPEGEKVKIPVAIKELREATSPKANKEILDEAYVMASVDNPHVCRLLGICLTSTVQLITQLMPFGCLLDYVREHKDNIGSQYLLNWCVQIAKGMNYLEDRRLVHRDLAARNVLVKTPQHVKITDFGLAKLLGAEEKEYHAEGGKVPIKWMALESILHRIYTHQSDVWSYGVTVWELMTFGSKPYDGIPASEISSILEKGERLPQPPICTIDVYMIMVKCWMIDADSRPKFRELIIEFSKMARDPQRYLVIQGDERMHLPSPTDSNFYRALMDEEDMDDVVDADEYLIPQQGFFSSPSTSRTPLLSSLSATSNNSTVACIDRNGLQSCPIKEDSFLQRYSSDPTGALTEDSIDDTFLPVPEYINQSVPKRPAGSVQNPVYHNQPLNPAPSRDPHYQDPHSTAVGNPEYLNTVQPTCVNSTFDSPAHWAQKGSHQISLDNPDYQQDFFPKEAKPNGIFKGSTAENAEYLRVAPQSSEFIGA
T2 sequence (P00533 25-1210 T790M/C797S/L858R): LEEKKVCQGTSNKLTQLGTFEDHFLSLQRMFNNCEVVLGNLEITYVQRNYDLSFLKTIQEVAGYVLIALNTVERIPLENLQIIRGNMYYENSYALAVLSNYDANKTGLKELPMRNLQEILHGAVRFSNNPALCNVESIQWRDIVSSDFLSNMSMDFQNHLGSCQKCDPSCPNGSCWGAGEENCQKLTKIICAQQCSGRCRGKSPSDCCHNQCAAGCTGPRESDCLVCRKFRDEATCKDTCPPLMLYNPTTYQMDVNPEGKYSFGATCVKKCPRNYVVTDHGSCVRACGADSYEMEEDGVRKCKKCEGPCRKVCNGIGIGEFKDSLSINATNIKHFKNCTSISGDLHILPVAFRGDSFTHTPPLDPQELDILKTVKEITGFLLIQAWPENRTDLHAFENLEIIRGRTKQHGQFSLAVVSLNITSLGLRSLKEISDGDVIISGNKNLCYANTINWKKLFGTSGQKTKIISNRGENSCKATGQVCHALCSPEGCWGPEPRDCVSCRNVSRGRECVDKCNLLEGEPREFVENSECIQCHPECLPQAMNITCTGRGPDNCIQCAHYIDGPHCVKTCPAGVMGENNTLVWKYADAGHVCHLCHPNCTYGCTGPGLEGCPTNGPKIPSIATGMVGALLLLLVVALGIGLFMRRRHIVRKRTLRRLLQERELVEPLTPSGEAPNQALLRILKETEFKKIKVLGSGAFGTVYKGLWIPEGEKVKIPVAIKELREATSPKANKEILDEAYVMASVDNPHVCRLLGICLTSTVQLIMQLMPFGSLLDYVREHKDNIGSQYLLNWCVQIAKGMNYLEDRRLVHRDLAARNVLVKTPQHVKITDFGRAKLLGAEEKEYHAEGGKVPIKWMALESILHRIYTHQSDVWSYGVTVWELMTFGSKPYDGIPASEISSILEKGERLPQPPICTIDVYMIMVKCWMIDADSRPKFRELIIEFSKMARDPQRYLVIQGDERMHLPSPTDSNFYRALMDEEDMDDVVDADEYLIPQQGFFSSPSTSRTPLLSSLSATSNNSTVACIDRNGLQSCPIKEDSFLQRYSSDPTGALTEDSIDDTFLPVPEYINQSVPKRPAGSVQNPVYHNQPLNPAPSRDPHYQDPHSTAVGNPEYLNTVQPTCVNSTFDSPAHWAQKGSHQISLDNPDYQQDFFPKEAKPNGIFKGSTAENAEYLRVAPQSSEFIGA
T4 sequence (P00533 25-1210 C797S/L858R): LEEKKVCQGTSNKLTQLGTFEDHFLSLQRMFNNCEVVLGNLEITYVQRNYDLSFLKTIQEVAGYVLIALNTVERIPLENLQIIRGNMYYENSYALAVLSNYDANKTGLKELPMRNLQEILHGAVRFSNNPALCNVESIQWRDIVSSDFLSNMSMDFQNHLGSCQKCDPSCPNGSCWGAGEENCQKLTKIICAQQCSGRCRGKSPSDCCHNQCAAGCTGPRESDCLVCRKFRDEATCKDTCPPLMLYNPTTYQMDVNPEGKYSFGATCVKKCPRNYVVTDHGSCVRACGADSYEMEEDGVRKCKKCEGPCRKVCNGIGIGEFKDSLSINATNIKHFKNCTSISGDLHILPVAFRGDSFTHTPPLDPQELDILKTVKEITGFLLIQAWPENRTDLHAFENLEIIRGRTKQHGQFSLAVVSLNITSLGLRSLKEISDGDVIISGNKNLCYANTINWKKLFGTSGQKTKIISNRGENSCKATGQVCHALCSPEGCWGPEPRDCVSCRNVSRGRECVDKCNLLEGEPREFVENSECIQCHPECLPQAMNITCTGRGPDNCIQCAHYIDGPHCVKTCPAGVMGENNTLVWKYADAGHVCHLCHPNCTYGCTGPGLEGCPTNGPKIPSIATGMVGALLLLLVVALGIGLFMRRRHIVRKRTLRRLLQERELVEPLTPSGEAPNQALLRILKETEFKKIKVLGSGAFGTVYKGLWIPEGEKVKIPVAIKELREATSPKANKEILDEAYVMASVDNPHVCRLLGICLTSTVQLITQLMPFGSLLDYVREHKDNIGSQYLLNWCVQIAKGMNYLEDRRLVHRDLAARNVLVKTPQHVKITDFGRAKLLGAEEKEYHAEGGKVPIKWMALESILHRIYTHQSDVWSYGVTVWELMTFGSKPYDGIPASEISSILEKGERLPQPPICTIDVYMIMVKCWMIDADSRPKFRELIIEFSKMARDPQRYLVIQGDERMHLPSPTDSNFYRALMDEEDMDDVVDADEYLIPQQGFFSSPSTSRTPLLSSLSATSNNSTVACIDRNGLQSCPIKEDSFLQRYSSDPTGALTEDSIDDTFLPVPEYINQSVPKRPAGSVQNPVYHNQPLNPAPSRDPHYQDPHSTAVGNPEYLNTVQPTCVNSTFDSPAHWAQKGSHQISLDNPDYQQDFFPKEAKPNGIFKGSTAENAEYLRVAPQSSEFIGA
T3 sequence (P00533 with tags, fused parts or gaps DEL746-750): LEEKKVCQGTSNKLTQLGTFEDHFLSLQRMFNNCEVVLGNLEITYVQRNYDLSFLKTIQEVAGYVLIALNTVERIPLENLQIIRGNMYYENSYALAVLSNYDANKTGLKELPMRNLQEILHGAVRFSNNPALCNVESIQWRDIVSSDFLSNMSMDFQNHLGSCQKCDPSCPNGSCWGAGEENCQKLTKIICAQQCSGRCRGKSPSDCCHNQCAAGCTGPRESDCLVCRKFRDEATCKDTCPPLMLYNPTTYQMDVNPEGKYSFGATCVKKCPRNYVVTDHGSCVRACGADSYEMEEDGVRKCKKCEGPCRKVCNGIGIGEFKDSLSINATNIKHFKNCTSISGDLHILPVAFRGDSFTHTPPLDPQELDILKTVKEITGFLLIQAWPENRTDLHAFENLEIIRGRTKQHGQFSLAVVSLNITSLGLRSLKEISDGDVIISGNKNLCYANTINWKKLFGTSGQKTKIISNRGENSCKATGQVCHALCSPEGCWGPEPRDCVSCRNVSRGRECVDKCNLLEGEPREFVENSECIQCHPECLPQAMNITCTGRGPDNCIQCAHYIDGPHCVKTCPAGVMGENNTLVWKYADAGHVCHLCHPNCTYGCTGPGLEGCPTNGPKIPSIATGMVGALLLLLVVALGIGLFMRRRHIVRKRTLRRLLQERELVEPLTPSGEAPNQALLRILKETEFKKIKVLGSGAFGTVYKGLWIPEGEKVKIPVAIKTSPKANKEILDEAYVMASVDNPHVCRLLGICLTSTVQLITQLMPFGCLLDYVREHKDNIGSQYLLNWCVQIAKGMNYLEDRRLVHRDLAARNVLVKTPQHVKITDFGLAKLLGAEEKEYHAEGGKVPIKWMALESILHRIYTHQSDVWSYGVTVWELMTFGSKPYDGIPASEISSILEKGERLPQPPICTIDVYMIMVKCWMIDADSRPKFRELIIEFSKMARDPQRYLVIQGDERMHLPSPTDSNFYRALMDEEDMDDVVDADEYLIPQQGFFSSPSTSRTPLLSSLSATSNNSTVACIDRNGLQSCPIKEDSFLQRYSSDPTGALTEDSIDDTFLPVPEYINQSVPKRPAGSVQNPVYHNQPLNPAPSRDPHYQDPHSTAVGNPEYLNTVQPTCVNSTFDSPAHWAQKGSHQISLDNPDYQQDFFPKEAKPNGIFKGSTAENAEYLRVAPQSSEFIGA

Row | SMILES | DC50 (EGFR WT (BaF3 WT cells); BaF3 WT, 16h treatment) [nM] | DTC Dmax (%) ([1]; 16h treatment) | Dmax [2, 6] [%] | DC50 [2, 7] [nM] | DC50 [2, 10] [nM] | DC50 [3, 11] [nM] | Dmax (%) H1975 # 28 DTC [3, 12] [%] | H1975 #23 DC Dmax (%) ([4]; 16h treatment) | DC50 [4, 13] [nM] | DC50 [5, 14] [nM] | other results
1 | CCc1cc(Nc2ncc(Br)c(Nc3ccc4nccnc4c3P(C)(C)=O)n2)c(OC)cc1N1CCC(N2CCN(CCN(C)c3ccc4c(c3)CN(C3CCC(=O)NC3=O)C4=O)CC2)CC1 (stereo not shown) [Example 71, 3-(5-((2-(4-(1-(4-((5-bromo-4-((5-(dimethylphosphoryl)quinoxalin-6-yl)amino)pyrimidin-2-yl)amino)-2-ethyl-5-methoxyphenyl)piperidin-4-yl)piperazin-1-yl)ethyl)(methyl)amino)-1-oxoisoindolin-2-yl)piperidine-2,6-dione] | > 10000 | 81.19 | 80 | 11.5 |  |  |  |  |  |  | Dmax (EGFR WT (BaF3 WT cells); BaF3, read-out: WT Dmax (%)): 31.4%; DC50 ([1]; read-out: DTC DC50, 16h treatment): 7.52 nM
2 | CCc1cc(Nc2ncc(Br)c(Nc3ccc4nccnc4c3P(C)(C)=O)n2)c(OC)cc1N1CCC(N2CCN(CCC3CCN(c4ccc5c(c4)CN(C4CCC(=O)NC4=O)C5=O)CC3)CC2)CC1 (stereo not shown) [Example 70, 3-(5-(4-(2-(4-(1-(4-((5-bromo-4-((5-(dimethylphosphoryl)quinoxalin-6-yl)amino)pyrimidin-2-yl)amino)-2-ethyl-5-methoxyphenyl)piperidin-4-yl)piperazin-1-yl)ethyl)piperidin-1-yl)-1-oxoisoindolin-2-yl)piperidine-2,6-dione] | > 10000 | 91.36 | 95 | 12.2 |  |  |  |  |  |  | Dmax (EGFR WT (BaF3 WT cells); [8]): 26.1%; DC50 [1, 9]: 8.49 nM
3 | CCc1cc(Nc2ncc(Br)c(Nc3ccc4nccnc4c3P(C)(C)=O)n2)c(OC)cc1N1CCC(N2CCN(C(=O)C3CCN(CC4CCN(c5ccc6c(c5)C(=O)N(C5CCC(=O)NC5=O)C6=O)CC4)CC3)CC2)CC1 (stereo not shown) [Example 63, 5-(4-((4-(4-(1-(4-((5-bromo-4-((5-(dimethylphosphoryl)quinoxalin-6-yl)amino)pyrimidin-2-yl)amino)-2-ethyl-5-methoxyphenyl)piperidin-4-yl)piperazine-1-carbonyl)piperidin-1-yl)methyl)piperidin-1-yl)-2-(2,6-dioxopiperidin-3-yl)isoindoline-1,3-dione] | > 10000 | 52.42 | 38.5 | > 2000 |  |  |  |  |  |  | Dmax (EGFR WT (BaF3 WT cells); [8]): 3.27%; DC50 [1, 9]: 281 nM; DC50 (EGFR (HCC827 cells)): 1.74 nM; Dmax (EGFR (HCC827 cells); maximum percentage of degradation): 86.3%
4 | CCc1cc(Nc2ncc(Br)c(Nc3ccc4nc(C)c(F)cc4c3P(C)(C)=O)n2)c(OC)cc1N1CCC(N2CCN(C(=O)[C@H]3CN(c4cc(F)c([C@H]5CCC(=O)NC5=O)c(F)c4)CC3(C)C)CC2)CC1 [Example 576, (R)-3-(4-((R)-4-(4-(1-(4-((5-bromo-4-((5-(dimethylphosphoryl)-3-fluoro-2-methylquinolin-6-yl)amino)pyrimidin-2-yl)amino)-2-ethyl-5-methoxyphenyl)piperidin-4-yl)piperazine-1-carbonyl)-3,3-dimethylpyrrolidin-1-yl)-2,6-difluorophenyl)piperidine-2,6-dione] |  |  |  |  | 12.1 | 2.8 | 81.93 | 77.19 | 3.59 | 15.8 | 
5 | CCc1cc(Nc2ncc(Br)c(Nc3ccc4c(=O)n(CC)ncc4c3P(C)(C)=O)n2)c(OC)cc1N1CCC(N2CCN(CCc3cc(F)c([C@H]4CCC(=O)NC4=O)c(F)c3)CC2)CC1 [Example 753, (R)-3-(4-(2-(4-(1-(4-((5-bromo-4-((5-(dimethylphosphoryl)-2-ethyl-1-oxo-1,2-dihydrophthalazin-6-yl)amino)pyrimidin-2-yl)amino)-2-ethyl-5-methoxyphenyl)piperidin-4-yl)piperazin-1-yl)ethyl)-2,6-difluorophenyl)piperidine-2,6-dione] |  |  |  |  | 83.7 | 6.28 | 87.49 | 78.45 | 2.43 | 20.1 | 
6 | CCc1ccc2c(P(C)(C)=O)c(Nc3nc(Nc4cc(CC)c(N5CCC(N6CCN(CCc7ccc8c(c7)oc(=O)n8C7CCC(=O)NC7=O)CC6)CC5)cc4OC)ncc3Br)ccc2n1 (stereo not shown) [Example 491, 3-(6-(2-(4-(1-(4-((5-bromo-4-((5-(dimethylphosphoryl)-2-ethylquinolin-6-yl)amino)pyrimidin-2-yl)amino)-2-ethyl-5-methoxyphenyl)piperidin-4-yl)piperazin-1-yl)ethyl)-2-oxobenzo[d]oxazol-3(2H)-yl)piperidine-2,6-dione] |  |  |  |  | 2.72 | 0.647 | 78.48 | 58.85 | 0.85 | 2.34 | 
7 | CCOc1cc(N2CCC(N3CCN(CCc4cccc5c4n(CC)c(=O)n5C4CCC(=O)NC4=O)CC3)CC2)c(CC)cc1Nc1ncc(Br)c(Nc2ccc3nc(CC)ccc3c2P(C)(C)=O)n1 (stereo not shown) [Example 504, 3-(4-(2-(4-(1-(4-((5-bromo-4-((5-(dimethylphosphoryl)-2-ethylquinolin-6-yl)amino)pyrimidin-2-yl)amino)-5-ethoxy-2-ethylphenyl)piperidin-4-yl)piperazin-1-yl)ethyl)-3-ethyl-2-oxo-2,3-dihydro-1H-benzo[d]imidazol-1-yl)piperidine-2,6-dione] |  |  |  |  | 6.56 | 0.962 | 75.99 | 78.25 | 2.95 | 12.4 | 
8 | CCOc1cc(N2CCC(N3CCN(C(=O)C4CCN(c5cccc6c5oc(=O)n6C5CCC(=O)NC5=O)CC4)CC3)CC2)c(CC)cc1Nc1ncc(Br)c(Nc2ccc3nc(CC)ccc3c2P(C)(C)=O)n1 (stereo not shown) [Example 481, 3-(7-(4-(4-(1-(4-((5-bromo-4-((5-(dimethylphosphoryl)-2-ethylquinolin-6-yl)amino)pyrimidin-2-yl)amino)-5-ethoxy-2-ethylphenyl)piperidin-4-yl)piperazine-1-carbonyl)piperidin-1-yl)-2-oxobenzo[d]oxazol-3(2H)-yl)piperidine-2,6-dione] |  |  |  |  |  |  | 77.65 | 64.14 |  |  | DC50 ([2]; read-out: DC50(nM) BaF3-LTC, BaF3-LTC cells, EGFR degradation, IC50 (DC50) from curve fit): 5.27 nM; Dmax ([2]; read-out: Dmax (%) BaF3-LTC, BaF3-LTC cells, maximum percentage of inhibition (degradation)): 86.5%; DC50 ([3]; read-out: DC50(nM) H1975 # 28 DTC; H1975 # 28 DTC cells; EGFR degradation, IC50 (DC50) from curve fit): 2.14 nM; DC50 ([4]; read-out: H1975 #23 DC DC50, 16h treatment): 1.06 nM; Dmax ([5]; BaF3, read-out: BaF3 LC Dmax (%)): 91.9%; DC50 ([5]; read-out: BaF3 LC DC50; BaF3 LC, 16h treatment): 0.871 nM
